{"source": "patent US9051551B2", "about": "“Methods and compositions for increasing sensitivity to tyrosine kinase inhibitors” (The University of Western Australia, priority 2009, dated 2015)", "key": {"HN5 HNC cell line": {"test_system": "HN5 HNC cell line", "test": "Erlotinib sensitivity assay (CellTitre 96 cell viability)", "settings": "Homo sapiens, HN5, 72 h, read-out: Erlotinib sensitivity (EC50)"}, "SCC-9 HNC cell line": {"test_system": "SCC-9 HNC cell line", "test": "Erlotinib sensitivity assay (CellTitre 96 cell viability)", "settings": "Homo sapiens, SCC-9, 72 h, read-out: Erlotinib sensitivity (EC50)"}, "[1]": {"settings": "cited from earlier work"}, "FaDu HNC cell line": {"test_system": "FaDu HNC cell line", "test": "Erlotinib sensitivity assay (CellTitre 96 cell viability)", "settings": "Homo sapiens, 72 h, read-out: Erlotinib sensitivity (EC50)"}}}
{"smiles": "C#Cc1cccc(Nc2ncnc3cc(OCCOC)c(OCCOC)cc23)c1", "note": "[erlotinib, N-(3-ethynylphenyl)-6,7-bis(2-methoxyethoxy)quinazolin-4-amine]", "values": [{"measurement": "EC50", "setting": "HN5 HNC cell line", "result": 640, "unit": "nM"}, {"measurement": "EC50", "setting": "SCC-9 HNC cell line", "result": 2150, "unit": "nM"}, {"measurement": "Concentration in serum of patients treated with erlotinib", "setting": "[1]", "result": "3000 to 10000", "unit": "nM"}, {"measurement": "EC50", "setting": "FaDu HNC cell line", "result": 8260, "unit": "nM"}]}
